The text below walks through data of patent US5221677A, “5-lipoxygenase inhibitors quinoline or isoquinoline derivatives” (Imperial Chemical Industries PLC, priority 1989, dated 1993).

pIC50: −log10 of the molar value. Bounds are passed on as bounds.

Experiment [1] deals with 5-LO. Description: Liberation of LTB4 induced by zymosan within an air pouch in male rats (test g). The experiment is classed as in vivo. Particulars: 3 h, oral, rat air pouch. As for the experimental part: g) An in vivo system involving measuring the effects of a test compound administered orally against the liberation of LTB4 induced by zymosan within an air pouch generated within the subcutaneous tissue of the back of male rats. The rats are anaesthetised and air pouches are formed by the injection of sterile air (20 ml). A further injection of air (10 ml) is similarly given after 3 days). At 6 days after the initial air injection the test compound is administered (usually orally as the supsension produced when a solution of the test compound in dimethylsulphoxide is added to hydroxypropylmethylcellulose), followed by the intrapouch injection of zymosan (1 ml of a 1% suspension in physiological saline). After 3 hours the rats are killed, the air pouches are lavaged with physiological saline, and the specific radioimmunoassay described above is used to assay LTB4 in washings. This test provides an indication of inhibitory effects against 5-LO in an inflammatory milieu.

The test system of experiment [2] is 5-LO. Description: In vitro heparinised human blood assay, A23187 challenge, LTB4 radioimmunoassay (test b). It is filed as cell-based. The method, then: b) An in vitro assay system involving incubating a test compound with heparinised human blood, prior to challenge with the calcium ionophore A23187 and then indirectly measuring the inhibitory effects on 5-LO by assaying the amount of LTB4 using the specific radioimmunoassay described by Carey and Forder (F. Carey and R. A. Forder, Brit. J. Pharmacol. 1985, 84, 34P) which involves the use of a protein-LTB4 conjugate produced using the procedure of Young et alia (Prostaglandins, 1983, 26(4), 605-613). The effects of a test compound on the enzyme cyclooxygenase (which is involved in the alternative metabolic pathway for arachidonic acid and gives rise to prostaglandins, thromboxanes and related metabolites) may be measured at the same time using the specific radioimmunoassay for thromboxane B2 (TxB2) described by Carey and Forder (see above). This test provides an indication of the effects of a test compound against 5-LO and also cyclooxygenase in the presence of blood cells and proteins. It permits the selectivity of the inhibitory effect on 5-LO or cyclooxygenase to be assessed.

Experiment [3] deals with 5-LO. Description: Ex vivo assay: administration of test compound, blood collection, A23187 challenge, LTB4 radioimmunoassay (test c). The experiment is classed as in vivo. Conditions: oral.

In general, ED50 refers to the midpoint of the dose-response relation. Usually pIC50 stands for the IC50 on a negative log10 scale, so that one unit is a factor of ten. Regarding `COC1(c2cccc(Sc3ccc4c(ccc(=O)n4C)c3)c2)CCOCC1` [Example 1, 4-[3-(1,2-dihydro-1-methyl-2-oxoquinolin-6-ylthio)phenyl]-4-methoxytetrahydropyran], the ED50 with 5-LO [1] was 1 mg/kg; in the experiment on 5-LO [3] it was 1.5 mg/kg. In the experiment with 5-LO [2], the pIC50 was more than 7.40.
